# Measured values taken from patent US10287301B2 (Achillion Pharmaceuticals, Inc., priority 2015, dated 2019).
# Biological target: Human Factor D (Homo sapiens (Human), UniProt P00746)
# Experiment: Human Factor D Assay
# Assay type: biochemical
# Conditions: Table 3; Human Factor D 80 nM, substrate Z-L-Lys-SBzl; read-out: IC50 (Stars)
# In short: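 Thioester cleavage assay: human Factor D (serum-derived, 80 nM final), substrate Z-L-Lys-SBzl with DTNB, both 100 μM final, after 5 min compound preincubation at room temperature.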
# Human Factor D, sequence (P00746 26-253): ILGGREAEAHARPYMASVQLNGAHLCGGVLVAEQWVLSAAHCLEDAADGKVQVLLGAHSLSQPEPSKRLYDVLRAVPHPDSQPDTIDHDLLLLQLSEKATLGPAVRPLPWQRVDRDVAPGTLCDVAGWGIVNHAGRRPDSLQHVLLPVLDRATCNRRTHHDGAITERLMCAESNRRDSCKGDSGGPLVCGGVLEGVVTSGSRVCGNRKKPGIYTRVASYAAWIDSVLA
row,SMILES,IC50
1,"CC(=O)c1nn(CC(=O)N2C[C@H](F)C[C@H]2C(=O)Nc2nc(Br)ccc2C)c2ccc(-c3cnc(N)nc3)cc12 [Compound 435, (2S,4R)-1-(2-(3-Acetyl-5-(2-aminopyrimidin-5-yl)-1H-indazol-1-yl)acetyl)-N-(6-bromo-3-methylpyridin-2-yl)-4-fluoropyrrolidine-2-carboxamide]",< 1000 nM
2,"COc1ncc(-c2ccc3c(c2)c(C(C)=O)nn3CC(=O)N2C[C@H](F)C[C@H]2C(=O)Nc2nc(Br)ccc2C)cn1 [Compound 436, (2S,4R)-1-(2-(3-Acetyl-5-(2-methoxypyrimidin-5-yl)-1H-indazol-1-yl)acetyl)-N-(6-bromo-3-methylpyridin-2-yl)-4-fluoropyrrolidine-2-carboxamide]",< 1000 nM
3,"CC(=O)c1nn(CC(=O)N2C[C@H](F)C[C@H]2C(=O)Nc2cc(F)ncc2Br)c2ccc(-c3cnc(C)nc3)cc12 [Compound 438, (2S,4R)-1-(2-(3-Acetyl-5-(2-methylpyrimidin-5-yl)-1H-indazol-1-yl)acetyl)-N-(5-bromo-2-fluoropyridin-4-yl)-4-fluoropyrrolidine-2-carboxamide]",< 1000 nM
4,"CC(=O)c1nn(CC(=O)N2C[C@H](F)C[C@H]2C(=O)Nc2nn(C)c3ncccc23)c2ccc(-c3cnc(C)nc3)cc12 [Compound 439, (2S,4R)-1-(2-(3-Acetyl-5-(2-methylpyrimidin-5-yl)-1H-indazol-1-yl)acetyl)-4-fluoro-N-(1-methyl-1H-pyrazolo[3,4-b]pyridin-3-yl)pyrrolidine-2-carboxamide]",< 1000 nM
5,"Cc1ncc(-c2ccc3c(c2)c(C(=O)CO)nn3CC(=O)N2C[C@H](F)C[C@H]2C(=O)Nc2cccc(Br)n2)cn1 [Compound 440, (2S,4R)—N-(6-bromopyridin-2-yl)-4-fluoro-1-(2-(3-(2-hydroxyacetyl)-5-(2-methylpyrimidin-5-yl)-1H-indazol-1-yl)acetyl)pyrrolidine-2-carboxamide]",< 1000 nM
6,"CC(=O)c1cn(CC(=O)N2C[C@H](F)C[C@H]2C(=O)NCc2ccccc2)c2ccc(-c3cnc(C)nc3)cc12 [Compound 442, (2S,4R)-1-(2-(3-Acetyl-5-(2-methylpyrimidin-5-yl)-1H-indol-1-yl)acetyl)-N-benzyl-4-fluoropyrrolidine-2-carboxamide]",< 1000 nM
7,"CC(=O)c1cn(CC(=O)N2C[C@H](F)C[C@H]2C(=O)NCCc2ccccc2)c2ccc(-c3cnc(C)nc3)cc12 [Compound 443, (2S,4R)-1-(2-(3-Acetyl-5-(2-methylpyrimidin-5-yl)-1H-indol-1-yl)acetyl)-4-fluoro-N-phenethylpyrrolidine-2-carboxamide]",< 1000 nM
8,"CC(=O)c1cn(CC(=O)N2C[C@H](F)C[C@H]2C(=O)NCCCc2ccccc2)c2ccc(-c3cnc(C)nc3)cc12 [Compound 444, (2S,4R)-1-(2-(3-Acetyl-5-(2-methylpyrimidin-5-yl)-1H-indol-1-yl)acetyl)-4-fluoro-N-(3-phenylpropyl)pyrrolidine-2-carboxamide]",< 1000 nM
9,"COc1ncc(-c2ccc3c(c2)c(C(C)=O)nn3CC(=O)N2[C@@H]3C[C@@H]3C[C@H]2C(=O)Nc2nc(Br)ccc2C)cn1 [Compound 445, (1R,3S,5R)-2-(2-(3-Acetyl-5-(2-methoxypyrimidin-5-yl)-1H-indazol-1-yl)acetyl)-N-(6-bromo-3-methylpyridin-2-yl)-2-azabicyclo[3.1.0]hexane-3-carboxamide]",< 1000 nM
10,"CC(=O)c1nn(CC(=O)N2[C@@H]3C[C@@H]3C[C@H]2C(=O)Nc2nc(Br)ccc2C)c2ccc(-c3cnc(N)nc3)cc12 [Compound 446, (1R,3S,5R)-2-(2-(3-Acetyl-5-(2-aminopyrimidin-5-yl)-1H-indazol-1-yl)acetyl)-N-(6-bromo-3-methylpyridin-2-yl)-2-azabicyclo[3.1.0]hexane-3-carboxamide]",< 1000 nM
11,"CC(=O)c1nn(CC(=O)N2[C@@H]3C[C@@H]3C[C@H]2C(=O)Nc2ccc(F)c(Br)n2)c2ccc(-c3cnc(C)nc3)cc12 [Compound 447, (1R,3S,5R)-2-(2-(3-Acetyl-5-(2-methylpyrimidin-5-yl)-1H-indazol-1-yl)acetyl)-N-(6-bromo-5-fluoropyridin-2-yl)-2-azabicyclo[3.1.0]hexane-3-carboxamide]",< 1000 nM
12,"CC(=O)c1nn(CC(=O)N2C[C@H](F)C[C@H]2C(=O)Nc2nc(Br)cs2)c2ccc(-c3cnc(C)nc3)cc12 [Compound 448, (2S,4R)-1-(2-(3-Acetyl-5-(2-methylpyrimidin-5-yl)-1H-indazol-1-yl)acetyl)-N-(4-bromothiazol-2-yl)-4-fluoropyrrolidine-2-carboxamide]",< 1000 nM
13,"CC(=O)c1nn(CC(=O)N2C[C@H](F)C[C@H]2C(=O)Nc2nc(Br)c(C)s2)c2ccc(-c3cnc(C)nc3)cc12 [Compound 449, (2S,4R)-1-(2-(3-Acetyl-5-(2-methylpyrimidin-5-yl)-1H-indazol-1-yl)acetyl)-N-(4-bromo-5-methylthiazol-2-yl)-4-fluoropyrrolidine-2-carboxamide]",< 1000 nM
14,"COc1ncc(-c2ccc3c(c2)c(C(C)=O)nn3CC(=O)N2C[C@H](F)C[C@H]2C(=O)Nc2ccc(F)c(Br)n2)cn1 [Compound 450, (2S,4R)-1-(2-(3-Acetyl-5-(2-methoxypyrimidin-5-yl)-1H-indazol-1-yl)acetyl)-N-(6-bromo-5-fluoropyridin-2-yl)-4-fluoropyrrolidine-2-carboxamide]",< 1000 nM
15,"CC(=O)c1nn(CC(=O)N2C[C@H](F)C[C@H]2C(=O)Nc2ccc(F)c(Br)n2)c2ccc(-c3cnc(N)nc3)cc12 [Compound 451, (2S,4R)-1-(2-(3-Acetyl-5-(2-aminopyrimidin-5-yl)-1H-indazol-1-yl)acetyl)-N-(6-bromo-5-fluoropyridin-2-yl)-4-fluoropyrrolidine-2-carboxamide]",< 1000 nM
16,"CC(=O)O[C@H]1[C@@H](C(=O)Nc2cccc(Br)n2)N(C(=O)Cn2nc(C(C)=O)c3cc(-c4cnc(C)nc4)ccc32)C[C@@H]1F [Compound 452, (2S,3S,4S)-1-(2-(3-Acetyl-5-(2-methylpyrimidin-5-yl)-1H-indazol-1 yl)acetyl)-2-((6-bromopyridin-2-yl)carbamoyl)-4-fluoropyrrolidin-3-yl acetate]",< 1000 nM
17,"CC(=O)c1nn(CC(=O)N2C[C@H](F)C[C@H]2C(=O)Nc2nc(-c3ccccc3Cl)cs2)c2ccc(-c3cnc(C)nc3)cc12 [Compound 453, (2S,4R)-1-(2-(3-Acetyl-5-(2-methylpyrimidin-5-yl)-1H-indazol-1-yl)acetyl)-N-(4-(2-chlorophenyl)thiazol-2-yl)-4-fluoropyrrolidine-2-carboxamide]",> 10000 nM
18,"CC(=O)c1nn(CC(=O)N2C3CC3(CN)C[C@H]2C(=O)Nc2cccc(Br)n2)c2ccc(-c3cnc(C)nc3)cc12 (stereo partly drawn) [Compound 454, (3S)-2-(2-(3-Acetyl-5-(2-methylpyrimidin-5-yl)-1H-indazol-1-yl)acetyl)-5-(aminomethyl)-N-(6-bromopyridin-2-yl)-2-azabicyclo[3.1.0]hexane-3-carboxamide]",< 1000 nM
19,"Cc1cccc(C[C@H](O)[C@@H]2C[C@@H](F)CN2C(=O)Cn2cc(C(N)=O)c3cc(-c4cnc(C)nc4)ccc32)n1 [Compound 455, 1-(2-((2S,4R)-4-fluoro-2-((S)-1-hydroxy-2-(6-methylpyridin-2-yl)ethyl)pyrrolidin-1-yl)-2-oxoethyl)-5-(2-methylpyrimidin-5-yl)-1H-indole-3-carboxamide]",> 10000 nM
